Results: patent publication US10538532B2, “Hepatitis B antiviral agents” (ENANTA PHARMACEUTICALS, INC., priority 2016, dated 2020)

Tested on: HBV
Assay: HepAD38 antiviral assay: reduction of viral product accumulation (virion DNA by qPCR, HBsAg or HBeAg by ELISA)
Assay type: cell-based, hepatitis B virus
Settings: Hepatitis B virus, HePAD38, 120 h, HepAD38 cells, five days after compound addition; concentration reducing viral product accumulation by 50% relative to no drug controls; read-out: HepAD38 EC50
Method: Methods: HepAD38 cells are maintained as previously reported (Ladner et al, Antimicrob. Agents Chemother. 1997, […], 1715). Briefly, cells are passaged upon attaining confluency in DMEM/F12 media in the presence of 10% FBS, Penn/Strep, 250 μg/mL G418, and 1 ug/ml tetracycline. Novel compounds are screened by first washing cells three times with PBS to remove tetracycline, and plating in 96 well plates at 35,000 cells/well. Compounds dissolved in DMSO are then diluted 1:200 into wells containing cells. Five days after compound addition, material is harvested for analysis. For an extended 8 day analysis, cells are plated and treated as described above, but media and compound are refreshed on d2 and d5 post initial treatment.
On harvest day, virion DNA is obtained by lysing with Sidestep Lysis and Stabilization Buffer and then quantified via quantitative real time PCR. Commercially available ELISA kits are used to quantitate the viral proteins HBsAg (Alpco) or HbeAg (US Biological) by following the manufacturer's recommended protocol after diluting samples to match the linear range of their respective assays. Irrespective of readout, compound concentrations that reduce viral product accumulation in the cell lysates or supernatants by 50% relative to no drug controls (EC50) are reported; EC50 ranges are as follows: A<0.1 μM; B 0.1-0.4 μM; C>0.4 μM.

Row | Structure (SMILES) | EC50 [nM]
1 | O=C(Nc1cc(F)c(F)c(F)c1)c1ccc(Cl)c(S(=O)(=O)[C@@H]2CCC[C@H](O)C2)c1 (racemic) [Example 58] | > 400
2 | O=C(Nc1cc(F)c(F)c(F)c1)c1ccc(Cl)c(S(=O)(=O)C2CCC3(CC2)OCCO3)c1 [Example 1] | 100 to 400
3 | O=C1CCC(S(=O)(=O)c2cc(C(=O)Nc3cc(F)c(F)c(F)c3)ccc2Cl)CC1 [Example 2] | 100 to 400
4 | C[C@H](NC(=O)OC(C)(C)C)C(=O)O[C@H]1CC[C@H](S(=O)(=O)c2cc(C(=O)Nc3cc(F)c(F)c(F)c3)ccc2Cl)CC1 [Example 5] | 100 to 400
5 | C[C@H](N)C(=O)O[C@H]1CC[C@H](S(=O)(=O)c2cc(C(=O)Nc3cc(F)c(F)c(F)c3)ccc2Cl)CC1 [Example 6] | 100 to 400
6 | O=C(Nc1cc(F)c(F)c(F)c1)c1ccc(Cl)c(S[C@H]2CC[C@H](O)CC2)c1 [Example 10] | 100 to 400
7 | O=C(Nc1cc(F)c(F)c(F)c1)c1ccc(Cl)c(SC2CCCCC2)c1 [Example 11] | > 400
8 | O=C(Nc1cc(F)c(F)c(F)c1)c1ccc(Cl)c(S(=O)(=O)C2CCCCC2)c1 [Example 12] | 100 to 400
9 | CCCSc1cc(C(=O)Nc2cc(F)c(F)c(F)c2)ccc1Cl [Example 13] | > 400
10 | COc1cc(C(=O)Nc2cc(F)c(F)c(F)c2)ccc1Cl [Example 14] | > 400
11 | CCCS(=O)(=O)c1cc(C(=O)Nc2cc(F)c(F)c(F)c2)ccc1Cl [Example 15] | 100 to 400
12 | Cc1c(NC(=O)c2ccc(Cl)c(S(=O)(=O)[C@]3(C)CC[C@H](O)CC3)c2)cc(F)c(F)c1F [Example 18] | 100 to 400
13 | Cc1c(NC(=O)c2ccc(Cl)c(S(=O)(=O)[C@]3(C)CC[C@@H](O)CC3)c2)cc(F)c(F)c1F [Example 19] | > 400
14 | O=C(Nc1cc(F)c(F)c(F)c1)c1ccc(Cl)c(S(=O)(=O)C2CC=CCC2)c1 (centres unmarked) [Example 20] | 100 to 400
15 | O=C(Nc1cc(F)c(F)c(F)c1)c1ccc(Cl)c(S(=O)(=O)[C@H]2CC[C@H](F)CC2)c1 [Example 21] | 100 to 400
16 | C[C@]1(O)CC[C@@H](S(=O)(=O)c2cc(C(=O)Nc3cc(F)c(F)c(F)c3)ccc2Cl)CC1 [Example 22] | 100 to 400
17 | C[C@]1(O)CC[C@H](S(=O)(=O)c2cc(C(=O)Nc3cc(F)c(F)c(F)c3)ccc2Cl)CC1 [Example 23] | 100 to 400
18 | O=C(Nc1ccnc(Cl)c1)c1ccc(Cl)c(S(=O)(=O)[C@H]2CC[C@H](O)CC2)c1 [Example 24] | > 400
19 | O=C(Nc1cc(F)c(F)c(F)c1)c1ccc(Cl)c(O[C@H]2CC[C@H](O)CC2)c1 [Example 25] | > 400
20 | COc1cc(NC(=O)c2ccc(Cl)c(S(=O)(=O)[C@H]3CC[C@H](O)CC3)c2)ccc1F [Example 26] | > 400
21 | O=C(Nc1cc(F)c(F)c(F)c1)c1ccc(Cl)c(S(=O)(=O)Cc2ccccc2)c1 [Example 27] | > 400
22 | O=C(Nc1cc(F)c(F)c(F)c1)c1ccc(Cl)c(SCC2CCCCC2)c1 [Example 28] | > 400
23 | O=C1CCCC(S(=O)(=O)c2cc(C(=O)Nc3cc(F)c(F)c(F)c3)ccc2Cl)C1 (centres unmarked) [Example 29] | > 400

Row | Structure (SMILES) | EC50 [nM]
24 | O=C1CCCC(S(=O)(=O)c2cc(C(=O)Nc3cc(F)c(F)c(F)c3)ccc2Cl)CO1 (centres unmarked) [Example 30] | > 400
25 | O=C(Nc1cc(F)c(F)c(F)c1)c1ccc(Cl)c(S(=O)(=O)[C@@H]2CC[C@H](O)C2)c1 [Example 31] | 100 to 400
26 | O=C(Nc1cc(F)c(F)c(F)c1)c1ccc(Cl)c(SCc2ccccn2)c1 [Example 32] | > 400
27 | O=C1CC(S(=O)(=O)c2cc(C(=O)Nc3cc(F)c(F)c(F)c3)ccc2Cl)C1 [Example 33] | > 400
28 | O=C(Nc1cc(F)c(F)c(F)c1)c1ccc(Cl)c(S(=O)(=O)[C@H]2C[C@@H](O)C2)c1 [Example 34] | > 400
29 | O=C(Nc1cc(F)c(F)c(F)c1)c1ccc(Cl)c(SCc2cccnc2)c1 [Example 35] | > 400
30 | O=C(Nc1cc(F)c(F)c(F)c1)c1ccc(Cl)c(S(=O)(=O)CC2CCCCC2)c1 [Example 36] | > 400
31 | O=C(Nc1cc(F)c(F)c(F)c1)c1ccc(Cl)c(S(=O)(=O)Cc2cccc[n+]2[O-])c1 [Example 37] | > 400
32 | O=C(Nc1cc(F)c(F)c(F)c1)c1ccc(Cl)c(SCc2ccncc2)c1 [Example 38] | > 400
33 | C=C1CC2CCC(C1)C2Sc1cc(C(=O)Nc2cc(F)c(F)c(F)c2)ccc1Cl (centres unmarked) [Example 39] | > 400
34 | COc1cc(NC(=O)c2ccc(Cl)c(S(=O)(=O)[C@H]3CC[C@H](O)CC3)c2)ccn1 [Example 40] | > 400
35 | N#Cc1cc(NC(=O)c2ccc(Cl)c(S(=O)(=O)[C@H]3CC[C@H](O)CC3)c2)ccc1F [Example 41] | > 400
36 | O=C(Nc1cc(F)c(F)cn1)c1ccc(Cl)c(S(=O)(=O)[C@H]2CC[C@H](O)CC2)c1 [Example 43] | > 400
37 | O=C(Nc1cc(F)c(F)c(F)c1)c1ccc(Cl)c(S(=O)(=O)[C@H]2C3CCC2C[C@@H](O)C3)c1 [Example 44] | 100 to 400
38 | O=C(Nc1cc(F)c(F)c(F)c1)c1ccc(Cl)c([S+]([O-])Cc2ccncc2)c1 (centres unmarked) [Example 47] | > 400
39 | C=C1CC2CCC(C1)C2S(=O)(=O)c1cc(C(=O)Nc2cc(F)c(F)c(F)c2)ccc1Cl (centres unmarked) [Example 49] | 100 to 400
40 | O=C(Nc1ccc(F)c(F)c1)c1ccc(Cl)c(S(=O)(=O)[C@H]2CC[C@H](O)CC2)c1 [Example 51] | 100 to 400
41 | O=C(Nc1ccc(F)c(Cl)c1)c1ccc(Cl)c(S(=O)(=O)[C@H]2CC[C@H](O)CC2)c1 [Example 52] | 100 to 400
42 | CS(=O)(=O)NC(=O)O[C@H]1CC[C@H](S(=O)(=O)c2cc(C(=O)Nc3cc(F)c(F)c(F)c3)ccc2Cl)CC1 [Example 53] | > 400
43 | CC(C)(C)OC(=O)N[C@H]1CC[C@H](S(=O)(=O)c2cc(C(=O)Nc3cc(F)c(F)c(F)c3)ccc2Cl)CC1 [Example 54] | 100 to 400
44 | CC(C)(C)OC(=O)N[C@H]1CC[C@H]([S+]([O-])c2cc(C(=O)Nc3cc(F)c(F)c(F)c3)ccc2Cl)CC1 (some centres unmarked) [Example 55] | > 400
45 | N#Cc1cc(NC(=O)c2ccc(Cl)c(S(=O)(=O)[C@H]3CC[C@H](O)CC3)c2)ccn1 [Example 56] | > 400
46 | O=C1CCC(S(=O)(=O)c2cc(C(=O)Nc3cc(F)c(F)c(F)c3)ccc2Cl)C1 (centres unmarked) [Example 57] | > 400

Row | Structure (SMILES) | EC50 [nM]
47 | CC(C)(C)OC(=O)N1CCC(S(=O)(=O)c2cc(C(=O)Nc3cc(F)c(F)c(F)c3)ccc2Cl)CC1 [Example 59] | < 100
48 | O=C(Nc1cc(F)c(F)c(F)c1)c1ccc(Cl)c(S[C@H]2CC[C@H](O)CC2)n1 [Example 61] | > 400
49 | O=C(Nc1cc(F)c(F)c(F)c1)c1ccc(Cl)c(S(=O)(=O)[C@H]2CC[C@H](O)CC2)n1 [Example 62] | > 400
50 | O=C(Nc1cc(F)c(F)c(F)c1)c1ccc(Cl)c(SC2CCC=CCC2)c1 [Example 63] | > 400
51 | O=C(Nc1cc(F)c(F)c(F)c1)c1ccc(Cl)c([S+]([O-])C2CCC=CCC2)c1 (centres unmarked) [Example 64] | > 400
52 | O=C(Nc1cccc(F)c1)c1ccc(Cl)c(S(=O)(=O)[C@H]2CC[C@H](O)CC2)c1 [Example 65] | > 400
53 | O=C(Nc1ccc(F)cc1)c1ccc(Cl)c(S(=O)(=O)[C@H]2CC[C@H](O)CC2)c1 [Example 66] | > 400
54 | O=C(Nc1cc(F)c(F)c(F)c1)c1ccc(Cl)c(SC2CCOCC2)c1 [Example 67] | > 400
55 | O=C(Nc1cc(F)cc(F)c1)c1ccc(Cl)c(S(=O)(=O)[C@H]2CC[C@H](O)CC2)c1 [Example 68] | 100 to 400
56 | O=C(Nc1cc(F)c(F)c(F)c1)c1ccc(Cl)c(S(=O)(=O)C2CCOCC2)c1 [Example 69] | 100 to 400
57 | O=C(Nc1cc(F)c(F)c(F)c1)c1ccc(Cl)c(S(=O)(=O)C2CC[C@H](O)[C@H](O)C2)c1 (some centres unmarked) [Example 70] | 100 to 400
58 | O=C(Nc1cc(F)c(F)c(F)c1)c1ccc(Cl)c(Sc2ccccc2)c1 [Example 71] | > 400
59 | N[C@H]1CC[C@H](S(=O)(=O)c2cc(C(=O)Nc3cc(F)c(F)c(F)c3)ccc2Cl)CC1 [Example 72] | > 400
60 | CN(C)[C@H]1CC[C@H](S(=O)(=O)c2cc(C(=O)Nc3cc(F)c(F)c(F)c3)ccc2Cl)CC1 [Example 73] | > 400
61 | O=C(Nc1cc(F)c(F)c(F)c1)c1ccc(Cl)c(S(=O)(=O)C2CCNCC2)c1 [Example 74] | > 400
62 | CC(C)[C@H](N)C(=O)O[C@H]1CC[C@H](S(=O)(=O)c2cc(C(=O)Nc3cc(F)c(F)c(F)c3)ccc2Cl)CC1 [Example 75] | 100 to 400
63 | CC(C)[C@H](NC(=O)OC(C)(C)C)C(=O)O[C@H]1CC[C@H](S(=O)(=O)c2cc(C(=O)Nc3cc(F)c(F)c(F)c3)ccc2Cl)CC1 [Example 76] | 100 to 400
64 | CCOC(=O)CS(=O)(=O)c1cc(C(=O)Nc2cc(F)c(F)c(F)c2)ccc1Cl [Example 77] | > 400
65 | O=C(Nc1cc(F)c(F)c(F)c1)c1ccc(Cl)c(S[C@@H]2C[C@H](O)C[C@H](O)C2)c1 [Example 78] | > 400
66 | O=C(Nc1cc(F)c(F)c(F)c1)c1ccc(Cl)c(S(=O)(=O)[C@@H]2C[C@H](O)C[C@H](O)C2)c1 [Example 79] | > 400
67 | C=CCC1(S(=O)(=O)c2cc(C(=O)Nc3cc(F)c(F)c(F)c3)ccc2Cl)CCCCC1 [Example 81] | > 400
68 | O=C(Nc1cc(F)c(F)c(F)c1)c1ccc(Cl)c(S(=O)(=O)c2ccccc2)c1 [Example 82] | > 400
